For series [1] the following is noted: 298.15 K; 101.33 kPa; Liquid; Vibrating tube method.
Series [2] can be described thus: refractive index (Na D-line) (dimensionless). The conditions noted are these: 298.15 K; 101.33 kPa; Liquid; Standard Abbe refractometry.

± gives the expanded uncertainty stated by the source.

As for `CCCCCCCC[n+]1ccn(C)c1.F[B-](F)(F)F` [1-methyl-3-octylimidazolium tetrafluoroborate], the mass density in series [1] amounted to 1104.42 ± 8.5 kg/m3. The refractive index in series [2] came to 1.43329 ± 0.0012.
For the compound `CCCCCCCCn1cc[n+](C)c1.O=S(=O)([N-]S(=O)(=O)C(F)(F)F)C(F)(F)F`, in series [1], the mass density is on record as 1320.76 ± 12 kg/m3. Moreover, in series [2], the refractive index was determined as 1.43331 ± 0.0012.
Regarding `c1ccsc1` [thiophene], the mass density in series [1] turned out to be 1058.5 ± 0.15 kg/m3. Besides, the refractive index in series [2] is 1.52581 ± 0.00073.
For the compound `CC1CCCCC1` [methylcyclohexane], in series [1], the mass density stood at 764.97 ± 0.31 kg/m3. In addition, the refractive index in series [2] came out at 1.42048 ± 0.00075.

As a reminder, the mass density is the mass of a sample divided by its volume. By refractive index is commonly meant the speed of light in vacuum divided by its phase velocity in the sample.

(Values after the NIST ThermoML archive (doi:10.1021/je700362q).)
